Read-outs that look alike come from different tables or passages of the source.
Tests used:
off-target kinase = tested on: off-target kinase; set-up: method as in doi:10.1182/blood-2019-124934; conditions: cited from earlier work
[1] = tested on: cell line and patient derived xenograft models of AML; set-up: method as in doi:10.1182/blood-2022-170544; conditions: cited from earlier work
[2] = tested on: patient derived xenograft models of refractory DLBCL; set-up: method as in PMID 33093447; conditions: cited from earlier work
[3] = tested on: cell line derived xenografts from lung carcinomas; set-up: method as in Pacylex Inc., data on file; conditions: mice-bearing established human tumor xenografts, ref Pacylex Inc., data on file; cited from earlier work
[4] = set-up: method as in doi:10.1182/blood-2019-124934; conditions: multiple daily oral administration; cited from earlier work
dogs = conditions: dog, in vivo; cited from earlier work
human AML = tested on: human AML; set-up: method as in doi:10.1182/blood-2022-170544; conditions: murine tail-vein injection models of human AML; cited from earlier work
[5] = set-up: method as in Pacylex, data on file; conditions: preclinical models; ref Pacylex, data on file; cited from earlier work
rats = conditions: rat, in vivo; cited from earlier work
[6] = human, in vivo
Description: (§1) Peripheral blood samples were collected over six time points in the first 8 h of Cycle 1, Day 1 (C1D1), and again on C1D15. Pre-treatment Day 1 levels were obtained with every subsequent cycle.

[7] = tested on: patients with advanced solid tumors and relapsed/refractory (R/R) B-cell lymphomas; assay: Phase I dose escalation: safety, DLT, MTD/RP2D (NCI-CTCAE v5.0); format: in vivo; conditions: for Grade ≥ 3 treatment-related adverse events: Hypophosphatemia / Grade ≥ 3 treatment-related adverse events: Metabolism and nutrition disorders / Grade ≥ 3 treatment-related adverse events: Nausea / No. of pts with Gr ≥ 3 TRAEs: daily oral
Source text: A standard 3 + 3 design was used to assess for MTD and establish RP2D according to a pre-determined dose-escalation schema (Table 1). There was no intra-patient dose escalation. The MTD was defined as the dose level below the cohort in which 2 or more patients experienced a first cycle, zelenirstat attributable, dose-limiting toxicity (DLT), and the MTD required confirmation in at least 6 patients.
DLT was defined as any of the following: Grade (Gr) 4 thrombocytopenia, Gr 3 thrombocytopenia with bleeding, Gr 4 neutropenia ≥ 7 days, febrile neutropenia, clinically significant ≥ Gr 3 non-hematologic toxicity, or any significant toxicity warranting a withhold of zelenirstat. […] Toxicity was graded according to the National Cancer Institute Common Toxicity Criteria for Adverse Events (NCI-CTCAE) version 5.0.
For dose escalation, patients received daily oral zelenirstat on 28-day cycles. It was administered as 10 mg and 70 mg capsules, with instructions to take on an empty stomach each morning with 250 ml of tap water. Patients received zelenirstat until progressive disease, unacceptable toxicity, or withdrawal of consent.
Baseline imaging and hematology and blood chemistry were obtained within 4 weeks and 1 week of study entry, respectively. Baseline screening included a complete medical history, physical examination, assessment of ECOG performance status, and body weight. CT imaging was used for advanced solid tumors and B-cell NHL; PET-CT was optional for B-cell NHL. Weekly complete blood counts with white blood cell differentiation and blood chemistries were drawn for the first cycle, biweekly for cycle 2, and then prior to each 28-day cycle. Adverse events were evaluated weekly in the first cycle, biweekly for cycle 2, and before each subsequent cycle using the NCI-CTCAE version 5.0.

CYP3A4 = tested on: CYP3A4; set-up: method as in Pacylex, data on file; conditions: preclinical models; ref Pacylex, data on file; cited from earlier work
[8] = Plasma pharmacokinetics in phase I patients (UPLC-MS/MS); conditions: beyond Day 15
Description: as §1

[9] = tested on: ADP-ribosylation factor 6 (ARF6); set-up: method as in Pacylex, data on file; conditions: cultured colon cancer cells; ref Pacylex, data on file; cited from earlier work
[10] = oral once daily, 28-day cycles, patients

Cc1c(NS(=O)(=O)c2c(Cl)cc(-c3ccnc(N4CCNCC4)c3)cc2Cl)c(CC(C)C)nn1C [zelenirstat]
off-target kinase inhibition (off-target kinase): no relevant off-target kinase inhibition
xenograft tumor response [1]: similarly profound remissions
xenograft tumor response [2]: profound tumor regression and complete remissions
xenograft tumor response [3]: tumor growth inhibition
dose limiting toxicity in GLP non-clinical safety testing [4]: diarrhea was dose limiting
toxicities in formal toxicologic evaluation (dogs): acute gastrointestinal and hematologic toxicities
leukemic cell burden (human AML): reduced the leukemic cell burden
plasma protein binding [5]: highly bound to plasma protein
toxicities in formal toxicologic evaluation (rats): acute gastrointestinal and hematologic toxicities
Plasma concentrations (Cmax and AUC values) in patients on PPIs compared to patients not taking PPIs [6]: tended to be lower
Systemic exposure (Cmax and AUC values) versus dose [6]: tended to increase with increasing dose
time to steady state (visual observation of pre-dose concentrations) [6]: 8 to 15 days
accumulation following repeated administration ([6]; 14 day): < 2 fold
accumulation ratio for AUC0 − 24 (ArAUC0−24) ([6]; 14 day): 1.0-1.9
accumulation ratio for Cmax (ArCmax) ([6]; 14 day): 0.41-1.72
accumulation ratios for both ArCmax and ArAUC0−24 ([6]; 14 days): 3-6 fold
time to steady state ([6]; po): ≤ 15 days
AUC0 − 24 (h*ng/mL) (mean, SD) ([6]; po, 20 mg): 2066 (387) h*ng/mL
Cmax (ng/ml) (mean, SD) ([6]; po, 20 mg): 276 (117) ng/ml
Tmax (h) (median, range) ([6]; po, 20 mg): 1 (0.5–2.1) h
t1/2 (h) (mean, SD) ([6]; po, 20 mg): 7.4 (2.0) h
AUC0 − 24 (h*ng/mL) (mean, SD) ([6]; po, 40 mg): 7060 (6711) h*ng/mL
Cmax (ng/ml) (mean, SD) ([6]; po, 40 mg): 774 (720) ng/ml
t1/2 (h) (mean, SD) ([6]; po, 40 mg): 9.7 (3.0) h
AUC0 − 24 (h*ng/mL) (mean, SD) ([6]; po, 70 mg): 6613 (3526) h*ng/mL
Cmax (ng/ml) (mean, SD) ([6]; po, 70 mg): 467 (257) ng/ml
Tmax (h) (median, range) ([6]; po, 70 mg): 4.1 (4.0-7.9) h
AUC0 − 24 (h*ng/mL) (mean, SD) ([6]; po, 100 mg): 18,936 (9188) h*ng/mL
Cmax (ng/ml) (mean, SD) ([6]; po, 100 mg): 2188 (1037) ng/ml
Tmax (h) (median, range) ([6]; po, 100 mg): 2.0 (2.0-3.8) h
t1/2 (h) (mean, SD) ([6]; po, 100 mg): 8.0 (2.3) h
AUC0 − 24 (h*ng/mL) (mean, SD) ([6]; po, 140 mg): 8150 (2846) h*ng/mL
Cmax (ng/ml) (mean, SD) ([6]; po, 140 mg): 1335 (964) ng/ml
Tmax (h) (median, range) ([6]; po, 140 mg): 2.0 (1.0–2.0) h
t1/2 (h) (mean, SD) ([6]; po, 140 mg): 10.4 (5.5) h
AUC0 − 24 (h*ng/mL) (mean, SD) ([6]; po, 210 mg): 27,558 (13,349) h*ng/mL
Cmax (ng/ml) (mean, SD) ([6]; po, 210 mg): 2935 (1047) ng/ml
Tmax (h) (median, range) ([6]; po, 210 mg): 2.0 (1.0-3.9) h
t1/2 (h) (mean, SD) ([6]; po, 210 mg): 7.7 (3.4) h
Grade ≥ 3 treatment-related adverse events: Hypophosphatemia ([7]; 20 mg (N = 3)): 0 n, %
Grade ≥ 3 treatment-related adverse events: Metabolism and nutrition disorders ([7]; 20 mg (N = 3)): 0 n, %
Grade ≥ 3 treatment-related adverse events: Nausea ([7]; 20 mg (N = 3)): 0 n, %
No. of pts with Gr ≥ 3 TRAEs ([7]; 20 mg (N = 3)): 0 n, %
Grade ≥ 3 treatment-related adverse events: Hypophosphatemia ([7]; 40 mg (N = 3)): 0 n, %
Grade ≥ 3 treatment-related adverse events: Metabolism and nutrition disorders ([7]; 40 mg (N = 3)): 0 n, %
Grade ≥ 3 treatment-related adverse events: Nausea ([7]; 40 mg (N = 3)): 0 n, %
No. of pts with Gr ≥ 3 TRAEs ([7]; 40 mg (N = 3)): 0 n, %
Grade ≥ 3 treatment-related adverse events: Hypophosphatemia ([7]; 70 mg (N = 3)): 0 n, %
Grade ≥ 3 treatment-related adverse events: Metabolism and nutrition disorders ([7]; 70 mg (N = 3)): 0 n, %
Grade ≥ 3 treatment-related adverse events: Nausea ([7]; 70 mg (N = 3)): 0 n, %
No. of pts with Gr ≥ 3 TRAEs ([7]; 70 mg (N = 3)): 1 (33) n, %
Grade ≥ 3 treatment-related adverse events: Hypophosphatemia ([7]; 100 mg (N = 5)): 0 n, %
Grade ≥ 3 treatment-related adverse events: Metabolism and nutrition disorders ([7]; 100 mg (N = 5)): 0 n, %
Grade ≥ 3 treatment-related adverse events: Nausea ([7]; 100 mg (N = 5)): 0 n, %
No. of pts with Gr ≥ 3 TRAEs ([7]; 100 mg (N = 5)): 0 n, %
Grade ≥ 3 treatment-related adverse events: Hypophosphatemia ([7]; 140 mg (N = 3)): 0 n, %
Grade ≥ 3 treatment-related adverse events: Metabolism and nutrition disorders ([7]; 140 mg (N = 3)): 0 n, %
Grade ≥ 3 treatment-related adverse events: Nausea ([7]; 140 mg (N = 3)): 0 n, %
No. of pts with Gr ≥ 3 TRAEs ([7]; 140 mg (N = 3)): 0 n, %
Grade ≥ 3 treatment-related adverse events: Hypophosphatemia ([7]; 210 mg (N = 7)): 0 n, %
Grade ≥ 3 treatment-related adverse events: Metabolism and nutrition disorders ([7]; 210 mg (N = 7)): 0 n, %
Grade ≥ 3 treatment-related adverse events: Nausea ([7]; 210 mg (N = 7)): 0 n, %
No. of pts with Gr ≥ 3 TRAEs ([7]; 210 mg (N = 7)): 0 n, %
Grade ≥ 3 treatment-related adverse events: Hypophosphatemia ([7]; 280 mg (N = 5)): 1 (20) n, %
Grade ≥ 3 treatment-related adverse events: Metabolism and nutrition disorders ([7]; 280 mg (N = 5)): 1 (20) n, %
Grade ≥ 3 treatment-related adverse events: Nausea ([7]; 280 mg (N = 5)): 1 (20) n, %
No. of pts with Gr ≥ 3 TRAEs ([7]; 280 mg (N = 5)): 4 (80) n, %
evaluable patients with first cycle dose-limiting gastrointestinal toxicities ([7]; 280 mg daily cohort): Three
neuropathy ([7]; dose cohorts up to and including 210 mg): No neuropathy was reported
Gr 2 thrombocytopenia, patients ([7]; dose cohorts up to and including 210 mg, resolved despite continuation at full dose): 12%
maximum tolerated dose (MTD) [7, 10]: 210 mg
recommended phase 2 dose (RP2D) [7, 10]: 210 mg
drug-induced QT prolongation ([7]; pre- and post-dose ECG assessments, patients): no evidence of drug-induced QT prolongation
first cycle (or any cycle) DLTs ([7]; six evaluable patients, 210 mg per day cohort): absence of first cycle (or any cycle) DLTs
metabolism (CYP3A4): metabolized in the liver primarily by CYP3A4
accumulation over multiple cycles (pre-dose concentrations) [8]: no accumulation was apparent beyond Day 15
myristoylation of ARF6 [9]: inhibits the myristoylation
